Laboratory results as given in ChEMBL document CHEMBL3885881, “DrugMatrix”.

Species: Rattus norvegicus
Assay: DrugMatrix - Regimen: Daily Repeat
Assay type: toxicity, organism-based, Sprague-Dawley
Design: regimen Daily Repeat, gender Male, age 6-8 weeks
Details: in vivo, po, route oral GAVAGE; for ALBUMIN / ALKALINE PHOSPHATASE / ASPARTATE AMINOTRANSFERASE / BLOOD UREA NITROGEN / CARBON DIOXIDE / CHLORIDE / CHOLESTEROL / CREATINE PHOSPHOKINASE / CREATININE / GLUCOSE / LACTATE DEHYDROGENASE / LIPASE / PHOSPHORUS / POTASSIUM / SODIUM / TOTAL BILIRUBIN / TOTAL PROTEIN / URIC ACID / ALANINE AMINOTRANSFERASE: tissue Plasma; for ABSOLUTE BASOPHIL / ABSOLUTE EOSINOPHIL / ABSOLUTE LYMPHOCYTE / ABSOLUTE MONOCYTE / ABSOLUTE SEGMENTED NEUTROPHIL / BASOPHIL / EOSINOPHIL / ERYTHROCYTE COUNT / HEMATOCRIT / HEMOGLOBIN / LEUKOCYTE COUNT / LYMPHOCYTE / MEAN CORPUSCULAR HEMOGLOBIN / MEAN CORPUSCULAR HEMOGLOBIN CONCENTRATION / MEAN CORPUSCULAR VOLUME / MONOCYTE / NEUTROPHIL / NUCLEATED RED BLOOD CELLS / PLATELET COUNT: tissue Blood
[1] = 54 mg/kg, 120 h, dose level M1, time 5 day, vehicle 100 % WATER
[2] = 160 mg/kg, 72 h, dose level High, time 3 day, […]
[3] = 160 mg/kg, 120 h, dose level High, time 5 day, […]

## Cn1cnc([N+](=O)[O-])c1Sc1ncnc2nc[nH]c12 [AZATHIOPRINE]
[1]
  ALBUMIN: 4.6 G/DL
  ALKALINE PHOSPHATASE: 184.33 u/L
  ASPARTATE AMINOTRANSFERASE: 65.33 u/L
  BLOOD UREA NITROGEN: 14 mg/dL
  CARBON DIOXIDE: 33 mmol/L
  CHLORIDE: 96.33 MEQ/L
  CHOLESTEROL: 91.33 mg/dL
  CREATINE PHOSPHOKINASE: 188.33 u/L
  CREATININE: 0.26 mg/dL
  GLUCOSE: 159.67 mg/dL
  LACTATE DEHYDROGENASE: 98.33 u/L
  LIPASE: 14 u/L
  PHOSPHORUS: 9.43 mg/dL
  POTASSIUM: 5.71 MEQ/L
  SODIUM: 143.23 MEQ/L
  TOTAL BILIRUBIN: 0.13 mg/dL
  TOTAL PROTEIN: 6.97 G/DL
  URIC ACID: 0.23 mg/dL
[2]
  ABSOLUTE BASOPHIL: 0 CELLS/uL
  ABSOLUTE EOSINOPHIL: 0 CELLS/uL
  ABSOLUTE LYMPHOCYTE: 4093.67 CELLS/uL
  ABSOLUTE MONOCYTE: 37.33 CELLS/uL
  ABSOLUTE SEGMENTED NEUTROPHIL: 535.67 CELLS/uL
  BASOPHIL: 0%
  EOSINOPHIL: 0%
  ERYTHROCYTE COUNT: 5.12 x10E6/uL
  HEMATOCRIT: 34.5%
  HEMOGLOBIN: 13.07 G/DL
  LEUKOCYTE COUNT: 4.67 x10E3/uL
  LYMPHOCYTE: 87%
  MEAN CORPUSCULAR HEMOGLOBIN: 25.6 pg
  MEAN CORPUSCULAR HEMOGLOBIN CONCENTRATION: 37.87 G/DL
  MEAN CORPUSCULAR VOLUME: 67.47 fL
  MONOCYTE: 0.67%
  NEUTROPHIL: 12.33%
  NUCLEATED RED BLOOD CELLS: 0 /100WBC
  PLATELET COUNT: 1028 x10E3/uL
  ALANINE AMINOTRANSFERASE: 39.33 u/L
  ALBUMIN: 3.87 G/DL
  ALKALINE PHOSPHATASE: 207.67 u/L
  ASPARTATE AMINOTRANSFERASE: 81.33 u/L
  BLOOD UREA NITROGEN: 10.33 mg/dL
  CARBON DIOXIDE: 36 mmol/L
  CHLORIDE: 107.67 MEQ/L
  CHOLESTEROL: 84.67 mg/dL
  CREATINE PHOSPHOKINASE: 296.67 u/L
  CREATININE: 0.13 mg/dL
  GLUCOSE: 192.33 mg/dL
  LACTATE DEHYDROGENASE: 87.67 u/L
  LIPASE: 11.33 u/L
  PHOSPHORUS: 7.6 mg/dL
  POTASSIUM: 5.08 MEQ/L
  SODIUM: 138.17 MEQ/L
  TOTAL BILIRUBIN: 0.13 mg/dL
  TOTAL PROTEIN: 5.63 G/DL
  URIC ACID: 0.3 mg/dL
[3]
  ABSOLUTE BASOPHIL: 0 CELLS/uL
  ABSOLUTE EOSINOPHIL: 0 CELLS/uL
  ABSOLUTE LYMPHOCYTE: 1710 CELLS/uL
  ABSOLUTE MONOCYTE: 38 CELLS/uL
  ABSOLUTE SEGMENTED NEUTROPHIL: 152 CELLS/uL
  BASOPHIL: 0%
  EOSINOPHIL: 0%
  ERYTHROCYTE COUNT: 7.48 x10E6/uL
  HEMATOCRIT: 45.7%
  HEMOGLOBIN: 15.7 G/DL
  LEUKOCYTE COUNT: 1.9 x10E3/uL
  LYMPHOCYTE: 90%
  MEAN CORPUSCULAR HEMOGLOBIN: 21 pg
  MEAN CORPUSCULAR HEMOGLOBIN CONCENTRATION: 34.4 G/DL
  MEAN CORPUSCULAR VOLUME: 61.1 fL
  MONOCYTE: 2%
  NEUTROPHIL: 8%
  NUCLEATED RED BLOOD CELLS: 0 /100WBC
  PLATELET COUNT: 666 x10E3/uL
  ALANINE AMINOTRANSFERASE: 237 u/L
  ALBUMIN: 2.8 G/DL
  ALKALINE PHOSPHATASE: 281 u/L
  ASPARTATE AMINOTRANSFERASE: 835 u/L
  BLOOD UREA NITROGEN: 15 mg/dL
  CARBON DIOXIDE: 36 mmol/L
  CHLORIDE: 106 MEQ/L
  CHOLESTEROL: 13 mg/dL
  CREATINE PHOSPHOKINASE: 348 u/L
  CREATININE: 0.38 mg/dL
  GLUCOSE: 192 mg/dL
  LACTATE DEHYDROGENASE: 280 u/L
  LIPASE: 10 u/L
  PHOSPHORUS: 6.3 mg/dL
  POTASSIUM: 4.73 MEQ/L
  SODIUM: 147 MEQ/L
  TOTAL BILIRUBIN: 0.2 mg/dL
  TOTAL PROTEIN: 3.4 G/DL
  URIC ACID: 0.2 mg/dL
